Reference: article PMC10563062 (2023)

Test system: d(AAGGG)4 (DNA, G4) AAGGGAAGGGAAGGGAAGGG
Assay: UV-vis absorption titration (Soret band); CD
Conditions: 100 mM KCl; 10 mM Tris-HCl, 0.1 mM EDTA, pH 7.4; 7 μM TMPyP4; 68% hypochromicity, 16 nm red shift

Question: `C[n+]1ccc(-c2c3nc(c(-c4cc[n+](C)cc4)c4ccc([nH]4)c(-c4cc[n+](C)cc4)c4nc(c(-c5cc[n+](C)cc5)c5ccc2[nH]5)C=C4)C=C3)cc1` was tested. Which binding did it give?
Answer: yes
